Experimental data from patent publication US7517890B2, “GTPase inhibitors and methods of use” (Children's Hospital Medical Center, priority 2003, dated 2009).

Columns and labels:
[1] = tested on: Swiss 3T3 cells; assay: Immunofluorescence of PDGF-stimulated lamellipodia formation (actin staining); settings: for PDGF induction of lamellipodia at the cell edges in the presence of compound: 100 μM compound, 10 nM PDGF
Description: Immunofluorescence. […] The cellular actin is stained with TRITC-labeled phalloidin (Sigma) at 10 μg/ml in PBS for 40 min at room temperature. The actin and cell morphological changes are visualized by fluorescence microscopy.
The cells were fixed and stained with Rhodamine-labeled phalloidin.

[2] = tested on: Tiam1-expressing NIH 3T3 cells; assay: Transformation of GEF-expressing NIH 3T3 cells (foci, soft agar); format: cell-based; settings: foci: 50 μM every two days, 14 days, soft agar: 100 μM
[3] = target: PDZ-RhoGEF-stimulated mantGDP/GTP exchange of RhoA (Homo sapiens, UniProt P61586); assay: In vitro guanine nucleotide exchange assay (mant-GDP), RhoA / PDZ-RhoGEF; format: biochemical; settings: 200 μM compound
Description: In vitro guanine nucleotide exchange assay. For these, 200 nM Rac1 loaded with mant-GDP is incubated at 25° C. in an exchange buffer containing 100 mM NaCl, 5 mM MgCl2, 50 mM Tris-HCl (pH 7.6), and 0.5 mM GTP in the absence or presence of 200 nM Trio. The mant-GDP fluorescence changes in the course of the exchange reactions are monitored with an excitation wavelength at 360 nm and the emission wavelength at 440 nm by a Cary Ellipse fluorescence spectrometer (Varian, Inc.).
In FIG. 3. […] In FIG. 3A, NSC23766 inhibited TrioN catalyzed GDP/GTP exchange of Rac1 in a dose dependent manner. 200 nM Rac1 loaded with mant-GDP was incubated at 25° C. in an exchange buffer containing 100 mM NaCl, 5 mM MgCk2, 50 mM Tris-HCl (PH 7.6), and 0.5 mM GTP in the absence (top line) or presence of 100 nM TrioN. Increasing concentrations of NSC23766 were included in the exchange buffer as indicated. In FIG. 3B, NSC23766 had no effect on the Intersectin-stimulated GDP/GTP exchange of Cdc42. 200 nM Cdc42 loaded with mant-GDP was incubated in the exchange buffer in the absence (top line) or presence of 100 nM Intersectin with or without 200 μM NSC23766. In FIG. 3C, the exchange reaction of RhoA catalyzed by PDZ-RhoGEF was carried out similarly in the presence or absence of 200 μM NSC23766.

[4] = tested on: NIH 3T3 cells; assay: Cell growth assay, wild type and RacL61- or GEF-transfected NIH 3T3 cells; format: cell-based; settings: 5% serum, 100 μM compound
[5] = target: endogenous RhoA (Mus musculus, UniProt Q9QUI0); assay: Endogenous Rho GTPase activity assay (GST-Rhotekin pull-down), RhoA in NIH 3T3 cells; settings: NIH 3T3 cells in 10% serum
Description: Endogenous Rho GTPase activity assay. […] Cells are grown in log phase in a 10 cm dish, and are starved in 0.5% serum medium or indicated otherwise for 24 hrs prior to lysis in a buffer containing 20 mM Tris-HCl (pH 7.6), 100 mM NaCl, 10 mM MgCl2, 1% NP-40, 10% glycerol, and 1× proteases inhibitor cocktail (Roch). Lysates are clarified and the protein concentrations are normalized. The cell lysates containing equal amount of proteins are incubated with 10 μg GST- or His6-fusion probes for 40 min at 4° C. under constant rotation. The beads are washed twice with the lysis buffer, and the bound-Rho GTPases are detected by anti-Rac1 (Upstate), or anti-Cdc42 (BD Transduction Laboratories) Western blotting. Quantification of the Western blots is carried out using a LAS-1000 luminescent image analyzer (Fujifilm medical system, USA, Inc.).
Cell lysates containing similar amount of Rac1, Cdc42 or RhoA were incubated with the agarose immobilized GST-PAK1, GST-WASP or GST-Rhotekin, and the co-precipitates were subjected to anti-Rac1, Cdc42 or RhoA Western blot analysis to reveal the amount of GTP-Bound Rho proteins.

[6] = tested on: PC-3 cells; assay: PC-3 cell growth (CellTiter 96 AQueous assay); settings: 5% serum, indicated concentrations of compound
Description: Cell growth assay. […] The growth rate of the prostate PC-3 cells is measured by the CellTiter 96 AQueous assay (Promega). 1,500 cells/well in 200 μl of 5% FBS medium are plated in 96-well plates and are grown under normal conditions. Cultures are assayed in 0, 1, 2, 3, 4, or 5 days by the addition of 20 μl of the combined MTS/PMS solution followed by incubation for one hour at 37° C. Absorbency is measured at a wavelength of 490 nm on an automated microplate reader.
The cells were split in triplicate in 96-wells at 1.5×10^3 cells per well. Cell numbers were assayed by using CellTiter 96 AQueous cell proliferation assay kit in different days.

[7] = tested on: PC-3 cells; assay: Anchorage independent growth of PC-3 cells in soft agar
Description: Anchorage independent growth.
The cells were split in triplicate in 96-wells at 1.5×10^3 cells per well.

[8] = tested on: PC-3 cells; assay: Matrigel cell invasion assay; settings: 25 μM compound, 24 hrs
Description: Cell invasion assays. The cell invasion assays are performed using 6.4-mm Biocoat Matrigel invasion chambers with 8.0-micron pore size PET membrane (Becton-Dickinson) according to the manufactory instructions. Briefly, 5×10^4 cells are resuspended in 0.5 ml of serum free culture medium and added to the upper chamber. 10% fetal bovine serum in the culture medium is used as a chemo-attractant in the lower chamber. After the cells are incubated for overnight, the number of cell passed through the Matrigel is counted.
Cells invaded through Matrigel matrix were visualized with Giemasa staining.

[9] = target: T1, RhoA binding to PDZ-RhoGEF (Homo sapiens, UniProt P61586); assay: Complex formation assay, RhoA with PDZ-RhoGEF; settings: varying concentrations of compound
T1 construct: made in house; host or cells: Cos-7 (PDZ-RhoGEF, used as lysate)
Description: Trio and Tiam-1 co-precipitate with GST-Rac1, but not GST or GST-Cdc42.
In FIG. 2A, 0.5 μg of (His)6-tagged TrioN was incubated with GST alone or nucleotide-free, GST-fused Cdc42 or Rac1 (2 μg) in the binding buffer containing different concentrations of NSC23766 and 10 μl suspended glutathione-agarose. After an incubation at 4° C. for 30 minutes, the beads associated (His)6-TrioN were detected by anti-His Western blotting. The blots were quantified by densitometry analysis. The results are representative of three measurements. In FIG. 2B, myc-tagged Tiam1 expressed in Cos-7 cell lysates were incubated with (His)6-Rac1 in the presence of increasing concentrations of NSC23766. The association of Rac1 with Tiam1 was examined by anti-His blot after anti-myc immunoprecipitation. In FIG. 2C, the AU-tagged PDZ-RhoGEF was expressed in Cos-7 lysates and incubated with GST or GST-RhoA in the presence of varying concentrations of NSC23766. The RhoA associated PDZ-RhoGEF was probed with anti-AU antibody after affinity precipitation by glutathione agarose beads. In FIG. 2D, (His)6-Rac1 loaded with GTPγ S was incubated with GST-BcrGAP or GST-PAK1 (PBD) in the presence or absence of 200 μM NSC23766 and the interaction with GSTBcrGAP or GST-PAK1 was probed by anti-His blot after affinity precipitation by glutathione agarose beads.

endogenous RhoA, sequence (Q9QUI0 whole entry): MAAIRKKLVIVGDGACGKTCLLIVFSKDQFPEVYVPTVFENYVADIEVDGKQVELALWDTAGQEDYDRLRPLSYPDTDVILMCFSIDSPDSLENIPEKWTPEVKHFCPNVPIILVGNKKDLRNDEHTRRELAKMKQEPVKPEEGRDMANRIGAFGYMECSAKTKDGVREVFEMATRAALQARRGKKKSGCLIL
T1 sequence (P61586 whole entry): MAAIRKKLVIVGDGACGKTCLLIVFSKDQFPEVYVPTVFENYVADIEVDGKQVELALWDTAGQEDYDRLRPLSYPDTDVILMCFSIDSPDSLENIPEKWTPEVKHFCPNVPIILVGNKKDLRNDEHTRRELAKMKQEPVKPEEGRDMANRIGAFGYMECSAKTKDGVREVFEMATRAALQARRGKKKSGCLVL
PDZ-RhoGEF-stimulated mantGDP/GTP exchange of RhoA, sequence (P61586 whole entry): as above

SMILES: CCN(CC)CCCC(C)Nc1nc(C)cc(Nc2ccc3nc(C)cc(N)c3c2)n1 (stereo not drawn) [compound 23766, N^6-(2-((4-(diethylamino)-1-methylbutyl)amino)-6-methyl-4-pyrimidinyl)-2-methyl-4,6-quinolinediamine]
- PDGF-stimulated lamellipodia formation ([1]; 50 μM compound, overnight serum starvation, 10 nM PDGF (FIG. 4C legend)): inhibited PDGF-stimulated lamellipodia formation
- PDGF induction of lamellipodia at the cell edges in the presence of compound ([1]; 5 min): only marginally effective
- PDGF induction of lamellipodia at the cell edges in the presence of compound ([1]; 10 min): completely ineffective
- Rac GEF stimulated cell growth and transformation [2]: specifically inhibited
- effect on PDZ-RhoGEF-stimulated mantGDP/GTP exchange of RhoA [3]: little impact
- growth of wild type NIH 3T3 cells [4]: slow the growth
- growth rate of Rac1L61 expressing NIH 3T3 cells [4]: no effect
- cell growth induced by the Rac specific GEF Trio ([4]; GEF expressing NIH 3T3 cells): capable of inhibiting
- level of RhoA-GTP in cells [5]: slightly increased level
- proliferation rates of PC-3 cells [6]: inhibited by compound 23766 in a dose dependent manner
- size of colonies of treated cells versus untreated [7]: much smaller
- colony-forming activity remaining ([7]; 25 μM compound): Approximately 10%
- colony-forming activity remaining ([7]; 50 μM compound): ~1%
- PC-3 cell invasion [8]: significantly inhibits
- effect on RhoA binding to PDZ-RhoGEF [9]: does not interfere
